# Results reported in patent publication US9617330B2, “Chemorepulsion of cells” (Celtaxsys, Inc., priority 2006, dated 2017).
# B1: Galectin-2: carbohydrate binding protein (galectin), full-length, purchased; accession P05162 (protein, UniProt P05162 1-132, looked up)
# chain: MTGELEVKNMDMKPGSTLKITGSIADGTDGFVINLGQGTDKLNLHFNPRFSESTIVCNSLDGSNWGQEQREDHLCFSPGSEVKFTVTFESDKFKVKLPDGHELTFPNRLGHSHLSYLSVRGGFNMSSFKLKE
# modifications: full-length
# B2: CCL27: chemokine (protein, UniProt Q9Y4X3 25-112, looked up)
# C-C motif chemokine 27: FLLPPSTACCTQLYRKPLSDKLLRKVIQVELQEADGDCHLQAFVLHLAQRSICIHPQNPSLSQWFEHQERKLHGTLPKLNFGMLRKMG
# B3: Semaphorin 3A: semaphorin (protein, UniProt Q14563 21-771, looked up)
# Semaphorin-3A: NYQNGKNNVPRLKLSYKEMLESNNVITFNGLANSSSYHTFLLDEERSRLYVGAKDHIFSFDLVNIKDFQKIVWPVSYTRRDECKWAGKDILKECANFIKVLKAYNQTHLYACGTGAFHPICTYIEIGHHPEDNIFKLENSHFENGRGKSPYDPKLLTASLLIDGELYSGTAADFMGRDFAIFRTLGHHHPIRTEQHDSRWLNDPKFISAHLISESDNPEDDKVYFFFRENAIDGEHSGKATHARIGQICKNDFGGHRSLVNKWTTFLKARLICSVPGPNGIDTHFDELQDVFLMNFKDPKNPVVYGVFTTSSNIFKGSAVCMYSMSDVRRVFLGPYAHRDGPNYQWVPYQGRVPYPRPGTCPSKTFGGFDSTKDLPDDVITFARSHPAMYNPVFPMNNRPIVIKTDVNYQFTQIVVDRVDAEDGQYDVMFIGTDVGTVLKVVSIPKETWYDLEEVLLEEMTVFREPTAISAMELSTKQQQLYIGSTAGVAQLPLHRCDIYGKACAECCLARDPYCAWDGSACSRYFPTAKRRTRRQDIRNGDPLTHCSDLHHDNHHGHSPEERIIYGVENSSTFLECSPKSQRALVYWQFQRRNEERKEEIRVDDHIIRTDQGLLLRSLQQKDSGNYLCHAVEHGFIQTLLKVTLEVIDTEHLEELLHKDDDGDGSKTKEMSNSMTPSQKVWYRDFMQLINHPNLNTMDEFCEQVWKRDRKQRRQRPGHTPGNSNKWKHLQENKKGRNRRTHEFERAPRSV
# B4: Cathespin G, Human Neutrophil: Cathespin G, Human Neutrophil (protein, UniProt P08311 21-244, looked up)
# Cathepsin G: IIGGRESRPHSRPYMAYLQIQSPAGQSRCGGFLVREDFVLTAAHCWGSNINVTLGAHNIQRRENTQQHITARRAIRHPQYNQRTIQNDIMLLQLSRRVRRNRNVNPVALPRAQEGLRPGTLCTVAGWGRVSMRRGTDTLREVQLRVQRDRQCLRIFGSYDPRRQICVGDRRERKAAFKGDSGGPLLCNNVAHGIVSYGKSSGVPPEVFTRVSSFLPWIRTTMRS
# B5: Semaphorin 3F: semaphorin (protein, UniProt Q13275 19-785, looked up)
# Semaphorin-3F: SFPTQDHLPATPRVRLSFKELKATGTAHFFNFLLNTTDYRILLKDEDHDRMYVGSKDYVLSLDLHDINREPLIIHWAASPQRIEECVLSGKDVNGECGNFVRLIQPWNRTHLYVCGTGAYNPMCTYVNRGRRAQATPWTQTQAVRGRGSRATDGALRPMPTAPRQDYIFYLEPERLESGKGKCPYDPKLDTASALINEELYAGVYIDFMGTDAAIFRTLGKQTAMRTDQYNSRWLNDPSFIHAELIPDSAERNDDKLYFFFRERSAEAPQSPAVYARIGRICLNDDGGHCCLVNKWSTFLKARLVCSVPGEDGIETHFDELQDVFVQQTQDVRNPVIYAVFTSSGSVFRGSAVCVYSMADIRMVFNGPFAHKEGPNYQWMPFSGKMPYPRPGTCPGGTFTPSMKSTKDYPDEVINFMRSHPLMYQAVYPLQRRPLVVRTGAPYRLTTIAVDQVDAADGRYEVLFLGTDRGTVQKVIVLPKDDQELEELMLEEVEVFKDPAPVKTMTISSKRQQLYVASAVGVTHLSLHRCQAYGAACADCCLARDPYCAWDGQACSRYTASSKRRSRRQDVRHGNPIRQCRGFNSNANKNAVESVQYGVAGSAAFLECQPRSPQATVKWLFQRDPGDRRREIRAEDRFLRTEQGLLLRALQLSDRGLYSCTATENNFKHVVTRVQLHVLGRDAVHAALFPPLSMSAPPPPGAGPPTPPYQELAQLLAQPEVGLIHQYCQGYWRHVPPSPREAPGAPRSPEPQDQKKPRNRRHHPPDT
# Assays:
# [1] = test system: Human primary neutrophils; test: Trans-well migration assay (Example 3 method), unimodal fugetaxin test; assay type: cell-based; parameters: key to Unimodal fugetaxin hit, Neutrophils: A “+” in the Table indicates a positive hit as a unimodal fugetaxin, as that term is defined herein, for that particular cell type; settings: for Unimodal fugetaxin hit, Neutrophils: human neutrophils, methods of Example 3
# [2] = test system: Human primary CD4+ lymphocytes; test: as above; assay type: cell-based; parameters: key: A “+” in the Table indicates a positive hit as a unimodal fugetaxin, as that term is defined herein, for that particular cell type; settings: methods of Example 3
# [3] = test system: Eo-HL60 (HL-60 clone 15 differentiated to eosinophil-like phenotype); test: Trans-well migration assay (Example 1), net migratory response; assay type: cell-based, human; settings: net observed response
# [4] = test system: Monocyte; test: as above; settings: Monocyte; net observed response
# Description: (§5) Prior to beginning the assay 0.5% Fetal Calf Serum (FCS) in Iscove's Modified Dulbecco's Medium (IMDM) is prepared and stored on ice (Assay Medium). Migratory cells at a concentration of 2×10^7 cells/ml are suspended in Assay Medium. T-cells isolated from donor blood or buffy coats are allowed to rest overnight in Assay Medium at 37° C. in 5% CO2. Neutrophils, monocytes and B cells are utilized as soon as they are purified from donor blood or other source of human origin. Four serial (10×) dilutions of the ligand are then prepared in Assay Medium (normally 10 μg/ml to 0.01 μg/ml).
# (§6) Plates are removed from the packaging, leaving the membrane behind and intact. The membrane is set aside. Into each well is pipetted 31 μl of solution. For media controls and fugetaxis (chemorepellent) samples, Assay Medium is used. For chemoattraction samples, the appropriate dilution of agent in assay medium is used.
# (§7) Using a sterile needle, all small bubbles present in each well are popped and the membrane is carefully placed onto the plate, starting at one side and slowly lowering the other edge onto the plate.
# (§8) Then 29 μl is pipetted into each circle imprinted on the polycarbonate or polyester membrane. For media controls and chemoattraction samples, Assay Medium is used. For fugetaxis (chemorepellent) samples, the appropriate dilution of ligand in assay medium is used.
# (§9) To each 29 uL aliquot above is added 2 μl of cells (40,000 cells). It is important to ensure that before beginning the cells are well suspended and that they are mixed. This mixing can be accomplished by agitating the tube between each addition.
# (§10) The plate is then covered with the supplied lid and incubated 1-3 hours in a humidified incubator at 37° C. in 5% CO2. Following the incubation period, the liquid from the top of the plate is removed with a tissue or similar blotting material (e.g. a Kimwipe). The membrane is carefully removed from the top of the plate and discarded. […] Using a multichannel pipettor, each well of the microplate is rinsed with 25 μl Phosphate Buffered Saline (Mediatech #21-040-CV) and transferred to the same wells in the white microplate. Using a multichannel pipettor, 50 μl CellTiter-Glo Luminescent Cell Viability Assay (Promega #G7572) is added to each well and mixed.
# (§11) The plate is read using the Perkin Elmer Victor^3V plate reader using the Large Aperture Luminescence setting at 8 mm height above the plate with a dwell time of 1 s to quantify the number of migrated cells.
# (§12) The results reported reflect the net observed migratory response of the cells to the ligand and are not based on the definition of unimodal fugetaxins.
# [5] = test system: B cells; test: High throughput transmigration assay (Example 9), chemorepulsion; assay type: cell-based, human; parameters: key: ratio of chemorepulsion (CR) to spontaneous migration (SM), CR/SM
# Description: (§1) An agent's repellent index is the ratio of chemorepulsion (CR) to spontaneous migration (SM) induced by the agent, i.e., [(CR)/(SM)]. […] For example, in calculating a RI for an agent, migratory responses including chemorepulsion (CR) and spontaneous migration (SM) may be measured over several decades or log scales of concentration. If, over any two consecutive measurements at concentrations which differ by at least 10 fold, the ratio of CR to SM at each of the two contiguous measurements is equal to or greater than 1.2, then the agent is considered a validated chemorepellent.
# (§2) For primary human T cells, up to 80 ml of blood is drawn from a human donor in sodium heparin Vacutainer tubes (Becton-Dickinson). The blood (between 10 and 15 ml per tube) is then layered onto 30 ml of Lymphocyte Separation Medium (LSM) (Cellgro, Herndon, Va.) in a 50 ml conical centrifuge tube and centrifuged for 20 minutes at 2440×g in a swinging bucket rotor. After removing the majority of the plasma from the top of each tube, the peripheral blood mononucleocyte (PBMC) layer is removed and transferred to fresh 50 ml conical centrifuge tubes. The tubes are then filled to 50 ml with IMDM and centrifuged for 10 minutes at 500×g. All but approximately 5 ml of the supernatant is then removed and the pellet resuspended with 25 ml IMDM and the centrifugation repeated. After removal of the supernatant, the cells are resuspended and combined to one 50 ml tube (per subject) and brought to a total volume of 50 ml. The cells are then counted using a hemacytometer (Reichert). After centrifugation under the same conditions, the supernatant is removed and the cells processed using the appropriate Miltenyi Biotec (Auburn, Calif.) negative selection kit to enrich for the desired cell type according to manufacturers instructions. The resulting purified cells are then diluted to 50 ml with IMDM. After centrifugation at 500×g for 10 minutes, the supernatant is removed and the cells resuspended in 15 ml IMDM supplemented with 0.5% heat inactivated fetal calf serum (FCS) (ATCC, Manassas, Va.). After another centrifugation for 10 minutes at 500×g, the supernatant is again removed and the cells resuspended in 7 ml 0.5% FCS in IMDM (assay medium) and transferred to a 15 ml conical centrifuge tube. The cells are then quantitated using a hemacytometer. When enriching for monocytes, the concentration of cells is adjusted to 2×10^7 per ml by centrifugation and removal of the appropriate volume of assay medium. For all other cell types, the tube cap is replaced with one from a 25 cm^2 tissue culture flask (Corning) and the cells stored overnight in a humidified 37° C. incubator with 5% CO2. The concentration of the cells is adjusted as for monocytes just prior to transmigration assay of Example 9.
# (§3) Migration away from a chemical or biological agent (chemorepulsion (CR)) was measured using ChemoTx plates (Neuroprobe). These plates contain a planar polycarbonate or polyester membrane that has been etched and perforated so that cells can move along the etched tracks and fall through perforation holes, enabling the cells to be collected and the number of migrated cells quantified (FIGS. 5-6). Several dilutions (normally 4 in 10-fold increments) are prepared of the agent of interest. For neutrophils, plates with 3 μm pore membranes are used, while for all other primary cell types, 5 μm pore membranes are used. Membranes may, or may not, be coated with polyvinylpyrrolidine (PVP) as a wetting agent.
# (§4) For spontaneous migration controls and chemorepulsion (CR) assays, 31 μl of assay medium is pipetted into the lower well of the transmigration apparatus (FIGS. 5-6). For spontaneous migration controls and chemoattraction (CA) assays, 29 μl of assay medium is pipetted into upper chamber of the transmigration apparatus (FIG. 5). For CR, the upper well assay medium contains the agent or candidate chemorepellent. […]
# [6] = test system: Neutrophils; test: as above; assay type: cell-based, human; settings: Neutrophils, mean of three donors at concentration of highest activity
# [7] = test system: B-cell; test: Trans-well migration assay (Example 1), net migratory response; settings: net observed response
# Description: as §5, §6, §7, §8, §9, §10, §11, §12
# [8] = test system: CD8+; test: High throughput transmigration assay (Example 9), chemorepulsion; assay type: cell-based, human; settings: mean of three donors at concentration of highest activity
# Description: as §1, §2, §3, §4
# [9] = mean of three donors at concentration of highest activity, range 0.00125-1.25 μM
molecule,measurement,setting,value
"CC(C)Cn1cnc2c(N)nc3ccccc3c21 [Imiquimod, reference compound]","Unimodal fugetaxin hit, Neutrophils",[1],+
same,"Unimodal fugetaxin hit, CD4+",[2],+
same,Migratory Response,[3],chemorepulsion
same,Migratory Response,[4],chemorepulsion
CCL11: chemokine,Repellent Index,[5]; [9],2.1
CXCL1: chemokine,Repellent Index,[5]; [9],1.3
same,Repellent Index,[6]; range 0.00125-1.25 μM,2.6
HSP27: heat shock protein; accession G01523/AAA62175,"Unimodal fugetaxin hit, Neutrophils",[1],+
same,Migratory Response,[3],chemorepulsion
same,Migratory Response,[4],chemorepulsion
same,Repellent Index,[6]; range 0.00125-1.25 μM,4.4
HSP60: heat shock protein,"Unimodal fugetaxin hit, Neutrophils",[1],+
same,"Unimodal fugetaxin hit, CD4+",[2],+
same,Migratory Response,[3],chemorepulsion
HSP90: heat shock protein; accession NP_005339.2 and others,"Unimodal fugetaxin hit, Neutrophils",[1],+
same,"Unimodal fugetaxin hit, CD4+",[2],+
same,Migratory Response,[3],chemorepulsion
same,Repellent Index,[6]; range 0.00125-1.25 μM,1.7
IL8: interleukin-8,chemotactic (chemoattractant) versus fugetactic (chemorepellent) response of neutrophils,"[1]; neutrophils, 1 hour, FIGS. 3 and 4, at 10 uM where stated",over twice as chemotactic (chemoattractant) as fugetactic (chemorepellent)
Poly(I:C) [reference compound],Migratory Response,[7],chemorepulsion
same,Migratory Response,[3],chemorepulsion
same,Migratory Response,[4],chemorepulsion
same,Repellent Index,[6]; range 0.01-10 μg/ml,1.4
B1,Repellent Index,[8]; range 0.00125-1.25 μM,1.5
same,Migratory Response,[3],chemorepulsion
B2,Repellent Index,[5]; [9],1.4
B3,Repellent Index,"[5]; 0.00125 μM, one donor, triplicate, ± SD",1.87 ± 0.40
same,Repellent Index,"[5]; 0.0125 μM, one donor, triplicate, ± SD",2.07 ± 0.52
same,Repellent Index,"[5]; 0.125 μM, one donor, triplicate, ± SD",2.39 ± 0.71
same,Repellent Index,"[5]; 1.25 μM, one donor, triplicate, ± SD",2.16 ± 0.28
same,Repellent Index,"[5]; mean of three donors at concentration of highest activity, range 0.01-10 μM",1.6
same,Repellent Index,[8]; range 0.01-10 μM,1.3
B4,Migratory Response,[7],chemorepulsion
same,Migratory Response,[3],chemorepulsion
same,Migratory Response,[4],chemorepulsion
B5,Repellent Index,[8]; range 0.01-10 μM,1.3
same,Repellent Index,[6]; range 0.01-10 μM,1.8
